Laboratory results: PubChem BioAssay (NCI)
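GI50: concentration for 50% inhibition of growth. At the TGI there is no net growth.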

Columns and labels:
Assay in all cases: growth of human tumour cells (NCI), 384-well format
ACHN renal = tested on: ACHN renal
HT29 colon = tested on: HT29 colon
SNB-19 CNS = tested on: SNB-19 CNS
MDA-MB-435 melanoma = tested on: MDA-MB-435 melanoma
T-47D breast = tested on: T-47D breast
HL-60(TB) leukemia = tested on: HL-60(TB) leukemia
NCI/ADR-RES ovarian = tested on: NCI/ADR-RES ovarian
TK-10 renal = tested on: TK-10 renal
SW-620 colon = tested on: SW-620 colon
SK-MEL-28 melanoma = tested on: SK-MEL-28 melanoma
KM12 colon = tested on: KM12 colon
HCT-15 colon = tested on: HCT-15 colon
A498 renal = tested on: A498 renal
DU-145 prostate = tested on: DU-145 prostate
M14 melanoma = tested on: M14 melanoma
CCRF-CEM leukemia = tested on: CCRF-CEM leukemia
OVCAR-3 ovarian = tested on: OVCAR-3 ovarian
HCC-2998 colon = tested on: HCC-2998 colon
A549 NSCLC = tested on: A549 NSCLC
UACC-62 melanoma = tested on: UACC-62 melanoma
K-562 leukemia = tested on: K-562 leukemia
786-0 renal = tested on: 786-0 renal
RPMI-8226 leukemia = tested on: RPMI-8226 leukemia
RXF 393 renal = tested on: RXF 393 renal
UO-31 renal = tested on: UO-31 renal
SN12C renal = tested on: SN12C renal
SF-268 CNS = tested on: SF-268 CNS
MOLT-4 leukemia = tested on: MOLT-4 leukemia
HS 578T breast = tested on: HS 578T breast
SK-OV-3 ovarian = tested on: SK-OV-3 ovarian
MALME-3M melanoma = tested on: MALME-3M melanoma
CAKI-1 renal = tested on: CAKI-1 renal
IGROV1 ovarian = tested on: IGROV1 ovarian
NCI-H226 lung = tested on: NCI-H226 lung
MDA-MB-231 breast = tested on: MDA-MB-231 breast
NCI-H23 lung = tested on: NCI-H23 lung
PC-3 prostate = tested on: PC-3 prostate
NCI-H322M lung = tested on: NCI-H322M lung
HOP-62 NSCLC = tested on: HOP-62 NSCLC
SNB-75 CNS = tested on: SNB-75 CNS
BT-549 breast = tested on: BT-549 breast
UACC-257 melanoma = tested on: UACC-257 melanoma
OVCAR-4 ovarian = tested on: OVCAR-4 ovarian
OVCAR-5 ovarian = tested on: OVCAR-5 ovarian
SR leukemia = tested on: SR leukemia
MCF7 breast = tested on: MCF7 breast
NCI-H460 NSCLC = tested on: NCI-H460 NSCLC
OVCAR-8 ovarian = tested on: OVCAR-8 ovarian
NCI-H522 lung = tested on: NCI-H522 lung
SF-295 CNS = tested on: SF-295 CNS
HOP-92 NSCLC = tested on: HOP-92 NSCLC
LOX IMVI melanoma = tested on: LOX IMVI melanoma
SK-MEL-5 melanoma = tested on: SK-MEL-5 melanoma
EKVX NSCLC = tested on: EKVX NSCLC
MDA-MB-468 breast = tested on: MDA-MB-468 breast
SF-539 CNS = tested on: SF-539 CNS
COLO 205 colon = tested on: COLO 205 colon

Cc1cc(-c2ccc(C3C(C#N)=C(N)Oc4c3c(=O)oc3ccccc43)cc2)cnc1F (centres undefined)
GI50 (ACHN renal): 42.6 µM
TGI (ACHN renal): > 100 µM
GI50 (HT29 colon): 25.1 µM
TGI (HT29 colon): 65 µM
GI50 (SNB-19 CNS): 62.9 µM
TGI (SNB-19 CNS): > 100 µM
GI50 (MDA-MB-435 melanoma): 89 µM
TGI (MDA-MB-435 melanoma): > 100 µM
GI50 (T-47D breast): 46.4 µM
TGI (T-47D breast): > 100 µM
GI50 (HL-60(TB) leukemia): 24.7 µM
TGI (HL-60(TB) leukemia): 44.9 µM
GI50 (NCI/ADR-RES ovarian): 40 µM
TGI (NCI/ADR-RES ovarian): > 100 µM
GI50 (TK-10 renal): 30.3 µM
TGI (TK-10 renal): 82.1 µM
GI50 (SW-620 colon): 58.3 µM
TGI (SW-620 colon): > 100 µM
GI50 (SK-MEL-28 melanoma): > 100 µM
TGI (SK-MEL-28 melanoma): > 100 µM
GI50 (KM12 colon): > 100 µM
TGI (KM12 colon): > 100 µM
GI50 (HCT-15 colon): 18.9 µM
TGI (HCT-15 colon): 39.3 µM
GI50 (A498 renal): 31.3 µM
TGI (A498 renal): > 100 µM
GI50 (DU-145 prostate): 39.3 µM
TGI (DU-145 prostate): > 100 µM
GI50 (M14 melanoma): 90.2 µM
TGI (M14 melanoma): > 100 µM
GI50 (CCRF-CEM leukemia): 17.5 µM
TGI (CCRF-CEM leukemia): 33.7 µM
GI50 (OVCAR-3 ovarian): 26.7 µM
TGI (OVCAR-3 ovarian): 57.1 µM
GI50 (HCC-2998 colon): 29.7 µM
TGI (HCC-2998 colon): 80.3 µM
GI50 (A549 NSCLC): 54.5 µM
TGI (A549 NSCLC): > 100 µM
GI50 (UACC-62 melanoma): 40.1 µM
TGI (UACC-62 melanoma): > 100 µM
GI50 (K-562 leukemia): 33.9 µM
TGI (K-562 leukemia): > 100 µM
GI50 ([…]-0 renal): 43.2 µM
TGI (786-0 renal): > 100 µM
GI50 (RPMI-8226 leukemia): 14 µM
TGI (RPMI-8226 leukemia): 33.5 µM
GI50 (RXF 393 renal): 17.4 µM
TGI (RXF 393 renal): 32.2 µM
GI50 (UO-31 renal): 30.1 µM
TGI (UO-31 renal): > 100 µM
GI50 (SN12C renal): 47.7 µM
TGI (SN12C renal): > 100 µM
GI50 (SF-268 CNS): 50.1 µM
TGI (SF-268 CNS): > 100 µM
GI50 (MOLT-4 leukemia): 15 µM
TGI (MOLT-4 leukemia): 28.4 µM
GI50 (HS 578T breast): 29.1 µM
TGI (HS 578T breast): 79.9 µM
GI50 (SK-OV-3 ovarian): 45.9 µM
TGI (SK-OV-3 ovarian): > 100 µM
GI50 (MALME-3M melanoma): 47.7 µM
TGI (MALME-3M melanoma): > 100 µM
GI50 (CAKI-1 renal): 43.6 µM
TGI (CAKI-1 renal): > 100 µM
GI50 (IGROV1 ovarian): 42.5 µM
TGI (IGROV1 ovarian): > 100 µM
GI50 (NCI-H226 lung): 18.4 µM
TGI (NCI-H226 lung): 59.3 µM
GI50 (MDA-MB-231 breast): 39.7 µM
TGI (MDA-MB-231 breast): > 100 µM
GI50 (NCI-H23 lung): 29.6 µM
TGI (NCI-H23 lung): > 100 µM
GI50 (PC-3 prostate): 53.1 µM
TGI (PC-3 prostate): > 100 µM
GI50 (NCI-H322M lung): 25.4 µM
TGI (NCI-H322M lung): 67 µM
GI50 (HOP-62 NSCLC): 34.7 µM
TGI (HOP-62 NSCLC): > 100 µM
GI50 (SNB-75 CNS): 40.9 µM
TGI (SNB-75 CNS): > 100 µM
GI50 (BT-549 breast): 27.9 µM
TGI (BT-549 breast): > 100 µM
GI50 (UACC-257 melanoma): 58.1 µM
TGI (UACC-257 melanoma): > 100 µM
GI50 (OVCAR-4 ovarian): 33.9 µM
TGI (OVCAR-4 ovarian): > 100 µM
GI50 (OVCAR-5 ovarian): 37.4 µM
TGI (OVCAR-5 ovarian): > 100 µM
GI50 (SR leukemia): 17.1 µM
TGI (SR leukemia): 32.2 µM
GI50 (MCF7 breast): 38 µM
TGI (MCF7 breast): > 100 µM
GI50 (NCI-H460 NSCLC): 37.1 µM
TGI (NCI-H460 NSCLC): > 100 µM
GI50 (OVCAR-8 ovarian): 38.5 µM
TGI (OVCAR-8 ovarian): > 100 µM
GI50 (NCI-H522 lung): 17.5 µM
TGI (NCI-H522 lung): 35.4 µM
GI50 (SF-295 CNS): 46.9 µM
TGI (SF-295 CNS): > 100 µM
GI50 (HOP-92 NSCLC): 13.9 µM
TGI (HOP-92 NSCLC): 39.7 µM
GI50 (LOX IMVI melanoma): 21.9 µM
TGI (LOX IMVI melanoma): 45.4 µM
GI50 (SK-MEL-5 melanoma): 29.8 µM
TGI (SK-MEL-5 melanoma): 78.1 µM
GI50 (EKVX NSCLC): 43.7 µM
TGI (EKVX NSCLC): > 100 µM
GI50 (MDA-MB-468 breast): 24 µM
TGI (MDA-MB-468 breast): 49.2 µM
GI50 (SF-539 CNS): 24.8 µM
TGI (SF-539 CNS): 55.6 µM
GI50 (COLO 205 colon): 64.6 µM
TGI (COLO 205 colon): > 100 µM
